Data set [1] relates to pDNA-PK induction in FaDU tumour spheroids. As to the kind of experiment: Multicellular tumour spheroid + radiation, pDNA-PK (ser2056) inhibition, immunohistochemical endpoint, FaDU. The format is cell-based. Conditions: Homo sapiens, 20 Gy. On the procedure: Multicellular tumour spheroids determination of compound inhibition of pDNA-PK induction following radiation. Tumour spheroids were grown to approximately 0.5 mm in diameter and irradiated with 20 Gy in combination with inhibitor test compounds to determine their potency. Inhibitor concentration for 50% reduction in pDNA-PK induction (IC50) was determined via immunohistochemical staining in spheroid cryosections taken 2 hours following radiation. For cell survival endpoint 8 Gy radiation was used and 3 hours following radiation spheroids were dissociated, counted and plated for colony forming endpoint.
Spheroid+radiation pDNA-PK. Radiation: 20 Gy. Drug: serial dilution 5 or 10 μM down to 3.5 nM (11 wells). Spheroids: 3-6 spheroids per well (300-500 μm diameter). 20% 02 and 5% CO2. 96 well plate format. Endpoint: fluorescent immunostain pDNA-PK ser2056 and image on microscope. Analysis: determine EC50 concentrations that decreases pDNA-PK induction by 50% after irradiation.
Multicellular tumour spheroids were used to determine potency of test compounds in a 3D tissue environment using inhibition of pDNA-PK induction following radiation or cell survival as the endpoint. For the pDNA-PK endpoint HCT116 or FaDU tumour spheroids were grown to approximately 0.5 mm in diameter and irradiated with 20 Gy in combination with inhibitor test compounds to determine their potency. Experiments were carried out in 96 well plates containing 0.7 mls of MEM media containing 10% FBS and 10 mM glucose under 20% O2 & 5% CO2 at 37° C. Following dilution of compounds 1:1000 from DMSO stocks, compounds were serially diluted from 10 μM down to 3.5 nM and 5-10 spheroids added. 96 well plates were constantly stirred to avoid spheroids settling during the course of the experiment. The inhibitor concentration for 50% reduction in pDNA-PK induction (EC50) was determined via immunohistochemical staining in spheroid cryosections taken 2 hours following radiation using anti-pDNA-PK (ser 2056) and fixed immediately in formalin following sectioning. For cell survival endpoint 8 Gy radiation was used and, 3 hours following radiation, spheroids were dissociated, counted and plated for colony forming endpoint. Data presented in the table compound potency as EC50 [μM].

The target in data set [2] is T1, DNA-PK phosphorylation at Serine 2056 (Homo sapiens, UniProt P78527).
T1 construct: FaDu cells were purchased from ATCC; host or cells: FaDu
As to the kind of experiment: Cellular Assay for Inhibition of DNA-PK Phosphorylation at Serine 2056 in FaDu cells (sandwich ELISA, neocarzinostatin). The class given is cell-based. Conditions: pSer2056 DNA-PK, neocarzinostatin 1 μg/mL, Table 1. In outline: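 FaDu cells pre-treated with compound (0.3% DMSO) for 1 h, then neocarzinostatin 1 μg/mL final added for 2 h to induce DSBs. Protein-normalised lysates read by sandwich ELISA for total and pSer2056 DNA-PK; % inhibition normalised between DMSO and NCS controls, IC50 from variable-slope log(inhibitor) fit.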

For data set [3], the target named is T2, DNA-PK (Homo sapiens, UniProt P78527).
T2 construct: purchased Invitrogen PR9107A
The data set is described as follows: DNA-PK Assay for Biochemical Enzymatic Inhibition (ADP Glo Kinase assay). The note with it: DNA-PK enzyme, Table 1. In outline:
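Human DNA-PK (25 ng) preincubated 15 min with compounds (ten three-fold dilutions) in HEPES pH 7.5, MgCl2, KCl, calf thymus DNA buffer, then substrate 434.4 μM and ATP 64.4 μM (final) for 60 min at room temperature. ADP-Glo luminescence; percent inhibition fitted by four-parameter regression for IC50.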

Data set [4] has as its system pDNA-PK induction in HCT116 tumour spheroids. As to the kind of experiment: Multicellular tumour spheroid + radiation, pDNA-PK (ser2056) inhibition, immunohistochemical endpoint, HCT116. The format is cell-based. Conditions: Homo sapiens, 20 Gy, 20% O2. The gist of the method:
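HCT116 spheroids (~0.5 mm) in MEM/10% FBS, 20% O2, 37° C., pre-incubated 1 h with compound (10 or 5 μM down to 3.5 nM), irradiated 20 Gy, then 2 h further with compound. Cryosections immunostained for pDNA-PK ser2056; EC50 is concentration halving radiation-induced pDNA-PK.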

Data set [5] can be described thus: Microsomal Stability Assay, mouse liver microsomes. The format is in vitro ADME. The note with it: for microsomal CLint at 0.1 uM: male, CD-1, pH 7.4, mouse liver microsomes 0.1 mg/mL, 0.1 uM compound; for Microsomal Stability Mouse % rem. 60 min: mouse liver microsomes. On the procedure: Samples were then mixed and centrifuged. Supernatants were used for HPLC-MS/MS analysis. […] Peak areas corresponding to the test compound were recorded.

Data set [6] deals with FaDu tumour xenograft. As to the kind of experiment: Tumour Growth Delay, FaDu tumour xenograft-bearing animals, compound ± radiation (TGD-ER). The note with it: PO, 50 mpk BID + 10 Gy. The class given is in vivo. The protocol:
FaDu tumour xenograft-bearing animals were monitored for tumour growth and once average tumour size reached approximately 100-250 mm3, animals were assigned to treatment cohorts using stratified randomization. […]
For BID dosing regimens, at 8 h following the first injection, animals were again administered with test compound at the same dose as their previous administration. Animals were weighed and had tumours measured using calipers three times weekly until the endpoint of maximum tumour volume, 1000 mm3, was reached and animals were euthanized. Tumour volumes were calculated according to the equation L×W^2/2 with the length (mm) being the longer axis of the tumour; in the case that no tumour was palpable, tumour volumes were recorded as 0 mm^3.
Data were calculated as tumour growth normalized to day 0 measurements, with time to tumour doubling determined. Average time to tumour doubling for each group was used to determine a Tumour Growth Delay Enhancement Ratio (TGD-ER): the time to doubling for treatment groups were divided by the time to doubling for irradiation-alone groups to determine group-specific TGD-ER values, and these were assigned scores based on defined response ranges: values>2.5=A, 1-2.5=B, <1=C.

The mark [7] stands for this setting: 2 hours following radiation, 20% O2, Example 9 Study 2, read-out: Spheroid Cell line: FaDU Immunohistochemical endpoint pDNA-PK inhibition EC50.
Setting [8] is: 2 h, spheroids, 20% O2, Example 8, read-out: Cell line: FaDU Immunohistochemical endpoint pDNA-PK inhibition EC50.
The mark [9] stands for this setting: HCT-116, 2 h, spheroids, Example 8, read-out: Cell line: HCT116 Immunohistochemical endpoint pDNA-PK inhibition EC50.
The mark [10] stands for this setting: HCT-116, 2 hours following radiation, Example 9 Study 2, read-out: Spheroid Cell line: HCT116 Immunohistochemical endpoint pDNA-PK inhibition EC50.
The mark [11] stands for this setting: HCT-116, Spheroid, Cell Line: HCT115 (so in the source), 2 hours following radiation, Example 7, read-out: EC50, Immunohistochemical endpoint, pDNA-PK inhibition.

SMILES strings stand for the structures. Where two headings read alike, the source gives them in different places.

Regarding `COc1ccc(NC(=O)N[C@H]2CC[C@@H](Oc3nc(N4CCOCC4)cc4ncccc34)CC2)cc1` [Compound 152, 1-(4-Methoxyphenyl)-3-((1s,4s)-4-((7-morpholino-1,6-naphthyridin-5-yl)oxy)cyclohexyl)urea], the EC50 in data set [1] (setting [7]) was 500 to 1000 nM; in data set [1] (setting [8]) it was 500 to 1000 nM; in data set [4] (setting [9]) it was 1000 to 10000 nM; in data set [4] (setting [10]), 1000 to 10000 nM; in data set [4] (setting [11]) it was 1000 to 10000 nM. Further, the IC50 in data set [2] is 100 to 1000 nM; in data set [3], 0.5 to 1 nM.

Regarding `CN(C)C(=O)COc1cnc(N[C@H]2CC[C@@H](Oc3nc(N4CCOCC4)cc4ncc(Br)cc34)CC2)nc1` [Compound 178, 2-((2-(((1s,4s)-4-((3-bromo-7-morpholino-1,6-naphthyridin-5-yl)oxy)cyclohexyl)amino)pyrimidin-5-yl)oxy)-N,N-dimethylacetamide], the concentration for a half-maximal effect (EC50) in data set [1] (setting [7]) is 1000 to 10000 nM; in data set [1] (setting [8]) it was 1000 to 10000 nM; in data set [4] (setting [9]) it was 500 to 1000 nM; in data set [4] (setting [10]) it was 500 to 1000 nM; in data set [4] (setting [11]), 500 to 1000 nM. Besides, the 50% inhibitory concentration (IC50) in data set [2] was 100 to 1000 nM; in data set [3], less than 0.5 nM.

With `O=C(Nc1ccncc1)[C@H]1CC[C@@H](Oc2nc(N3CCOCC3)cc3ncccc23)CC1` [Compound 154e, (1S,4S)-4-((7-morpholino-1,6-naphthyridin-5-yl)oxy)-N-(pyridin-4-yl)cyclohexane-1-carboxamide], the concentration giving a half-maximal response (EC50) in data set [1] (setting [7]) lay in the range of 500 to 1000 nM; in data set [1] (setting [8]), 500 to 1000 nM; in data set [4] (setting [9]), 1000 to 10000 nM; in data set [4] (setting [10]), 1000 to 10000 nM; in data set [4] (setting [11]) it was 1000 to 10000 nM. Besides, the IC50 in data set [2] lay within 100 to 1000 nM; in data set [3] it was 1 to 10 nM. In data set [5], this compound gave a microsomal CLint at 0.1 uM greater than 116 µL/min/mg. Further, the “Microsomal Stability Mouse % rem. 60 min” value in data set [5] is “E (% remaining = 0-25%)”.

For `CC(c1cnc([N+](=O)[O-])n1C)N(c1cnc2cc(N3CCOCC3)nc(O[C@H]3CC[C@@H](Nc4ncc(OCCN5CCN(C)CC5)cn4)CC3)c2c1)S(C)(=O)=O` (stereo partly drawn) [LFA033, N-[1-(3-Methyl-2-nitro-imidazol-4-yl)ethyl]-N-[5-[4-[[5-[2-(4-methylpiperazin-1-yl)ethoxy]pyrimidin-2-yl]amino]cyclohexoxy]-7-morpholino-1,6-naphthyridin-3-yl]methanesulfonamide], in data set [6], the “TGD-ER Range Score” value is given as “C (<1=C)”.

For the compound `O=C(O)c1cnc2cc(N3CCOCC3)nc(O[C@H]3CC[C@@H](Nc4ncccn4)CC3)c2c1` [Compound 183, 7-morpholino-5-(((1s,4s)-4-(pyrimidin-2-ylamino)cyclohexyl)oxy)-1,6-naphthyridine-3-carboxylic acid], the EC50 in data set [1] (setting [7]), in data set [1] (setting [8]), in data set [4] (setting [9]), in data set [4] (setting [10]) and in data set [4] (setting [11]) was 1000 to 10000 nM in each case. Also, the 50% inhibitory concentration (IC50) in data set [2] is 1000 to 10000 nM; in data set [3], less than 0.5 nM. Moreover, the intrinsic clearance (microsomal CLint) at 0.1 uM in data set [5] was less than 116 µL/min/mg. For the same compound, in data set [5], the “Microsomal Stability Mouse % rem. 60 min” value is given as “H (% remaining = 75-100%)”.

(Values after patent US20240239790A1, “7-Morpholino-1,6-Naphthyridin-5-yl Derivatives and Pharmaceutical Compositions Thereof Useful as DNA-PK Inhibitor” (adMare Therapeutics Society, priority 2021, published 2024).)
